Measured values published in ChEMBL document CHEMBL4308841, “Synthesis, in vitro antiproliferative activity, and kinase inhibitory effects of pyrazole-containing diarylureas and diarylamides” (Eur J Med Chem, 2018).

Tests used:
[1] = tested on: TK-10; experiment: Growth inhibition of human TK10 cells assessed as cell growth at 10 uM incubated for 48 hrs by sulforhodamine B assay relative to control; assay type: functional; conditions: TK-10, 48 h, read-out: Activity
[2] = tested on: SW-620; experiment: Growth inhibition of human SW620 cells assessed as cell growth at 0.01 uM incubated for 48 hrs by sulforhodamine B assay relative to control; assay type: functional; conditions: SW-620, 48 h, read-out: Activity
[3] = tested on: OVCAR-8; experiment: Growth inhibition of human OVCAR8 cells assessed as cell growth at 0.1 uM incubated for 48 hrs by sulforhodamine B assay relative to control; assay type: functional; conditions: OVCAR-8, 48 h, read-out: Activity
[4] = tested on: OVCAR-4; experiment: Growth inhibition of human OVCAR4 cells incubated for 48 hrs by sulforhodamine B assay; assay type: functional, cell-based; conditions: OVCAR-4, 48 h
[5] = tested on: MDA-MB-468; experiment: Growth inhibition of human MDA-MB-468 cells incubated for 48 hrs by sulforhodamine B assay; assay type: functional, cell-based; conditions: MDA-MB-468, 48 h
[6] = tested on: MDA-MB-435; experiment: Growth inhibition of human MDA-MB-435 cells incubated for 48 hrs by sulforhodamine B assay; assay type: functional, cell-based; conditions: MDA-MB-435, 48 h
[7] = tested on: OVCAR-3; experiment: Growth inhibition of human OVCAR3 cells assessed as cell growth at 100 uM incubated for 48 hrs by sulforhodamine B assay relative to control; assay type: functional; conditions: OVCAR-3, 48 h, read-out: Activity
[8] = tested on: LOX IMVI; experiment: Growth inhibition of human LOXIMVI cells incubated for 48 hrs by sulforhodamine B assay; assay type: functional
[9] = tested on: OVCAR-5; experiment: Growth inhibition of human OVCAR5 cells incubated for 48 hrs by sulforhodamine B assay; assay type: functional, cell-based; conditions: OVCAR-5, 48 h
[10] = tested on: K562; experiment: Growth inhibition of human K562 cells assessed as cell growth at 0.1 uM incubated for 48 hrs by sulforhodamine B assay relative to control; assay type: functional; conditions: K562, 48 h, read-out: Activity
[11] = tested on: 786-0; experiment: Growth inhibition of human 786-0 cells incubated for 48 hrs by sulforhodamine B assay; assay type: functional, cell-based; conditions: 786-0, 48 h
[12] = tested on: HCC 2998; experiment: Growth inhibition of human HCC2998 cells assessed as cell growth at 1 uM incubated for 48 hrs by sulforhodamine B assay relative to control; assay type: functional; conditions: HCC 2998, 48 h, read-out: Activity
[13] = tested on: T47D; experiment: Growth inhibition of human T47D cells assessed as cell growth at 0.01 uM incubated for 48 hrs by sulforhodamine B assay relative to control; assay type: functional; conditions: read-out: Activity
[14] = tested on: SK-MEL-2; experiment: Growth inhibition of human SK-MEL-2 cells assessed as cell growth at 0.1 uM incubated for 48 hrs by sulforhodamine B assay relative to control; assay type: functional; conditions: SK-MEL-2, 48 h, read-out: Activity
[15] = tested on: HCT-116; experiment: Growth inhibition of human HCT116 cells assessed as cell growth at 100 uM incubated for 48 hrs by sulforhodamine B assay relative to control; assay type: functional; conditions: HCT-116, 48 h, read-out: Activity
[16] = tested on: OVCAR-4; experiment: Growth inhibition of human OVCAR4 cells assessed as cell growth at 0.01 uM incubated for 48 hrs by sulforhodamine B assay relative to control; assay type: functional; conditions: OVCAR-4, 48 h, read-out: Activity
[17] = tested on: HCT-15; experiment: Growth inhibition of human HCT15 cells assessed as cell growth at 100 uM incubated for 48 hrs by sulforhodamine B assay relative to control; assay type: functional; conditions: HCT-15, 48 h, read-out: Activity
[18] = tested on: MOLT-4; experiment: Growth inhibition of human MOLT4 cells assessed as cell growth at 1 uM incubated for 48 hrs by sulforhodamine B assay relative to control; assay type: functional; conditions: MOLT-4, 48 h, read-out: Activity
[19] = tested on: SR; experiment: Growth inhibition of human SR cells assessed as cell growth at 0.01 uM incubated for 48 hrs by sulforhodamine B assay relative to control; assay type: functional; conditions: read-out: Activity
[20] = tested on: MDA-MB-435; experiment: Growth inhibition of human MDA-MB-435 cells assessed as cell growth at 1 uM incubated for 48 hrs by sulforhodamine B assay relative to control; assay type: functional; conditions: MDA-MB-435, 48 h, read-out: Activity
[21] = tested on: U-251; experiment: Growth inhibition of human U251 cells assessed as cell growth at 0.01 uM incubated for 48 hrs by sulforhodamine B assay relative to control; assay type: functional; conditions: U-251, 48 h, read-out: Activity
[22] = tested on: NCI-H226; experiment: Growth inhibition of human NCI-H226 cells assessed as cell growth at 1 uM incubated for 48 hrs by sulforhodamine B assay relative to control; assay type: functional; conditions: NCI-H226, 48 h, read-out: Activity
[23] = tested on: SNB-19; experiment: Growth inhibition of human SNB19 cells assessed as cell growth at 0.01 uM incubated for 48 hrs by sulforhodamine B assay relative to control; assay type: functional; conditions: SNB-19, 48 h, read-out: Activity
[24] = tested on: A498; experiment: Growth inhibition of human A498 cells incubated for 48 hrs by sulforhodamine B assay; assay type: functional, cell-based; conditions: A498, 48 h
[25] = tested on: M14; experiment: Growth inhibition of human M14 cells assessed as cell growth at 0.1 uM incubated for 48 hrs by sulforhodamine B assay relative to control; assay type: functional; conditions: M14, 48 h, read-out: Activity
[26] = tested on: A549; experiment: Growth inhibition of human A549/ATCC cells assessed as cell growth at 1 uM incubated for 48 hrs by sulforhodamine B assay relative to control; assay type: functional; conditions: A549, 48 h, read-out: Activity
[27] = tested on: HT-29; experiment: Growth inhibition of human HT-29 cells incubated for 48 hrs by sulforhodamine B assay; assay type: functional, cell-based; conditions: HT-29, 48 h
[28] = tested on: Hs-578T; experiment: Growth inhibition of human Hs578T cells assessed as cell growth at 1 uM incubated for 48 hrs by sulforhodamine B assay relative to control; assay type: functional; conditions: read-out: Activity
[29] = read-out: LC50 (the source's name)
[30] = read-out: pLC50 (the source's name) (converted)

Structure (SMILES): O=C(Nc1cccc(-n2cc(-c3ccncc3)c(-c3cc(O)cc(Cl)c3)n2)c1)Nc1ccc(Cl)c(C(F)(F)F)c1
- growth at 10 µM [1]: 25.9%
- growth at 0.01 µM [2]: 97%
- growth at 0.1 µM [3]: 100%
- GI50 ([4]; read-out: GI50): 3.21 µM
- CC50 [4, 29]: > 100 µM
- TGI ([4]; read-out: TGI): 92.3 µM
- GI50 ([4]; read-out: pGI50 (converted)): 3.24 µM
- CC50 [4, 30]: > 100 µM
- TGI ([4]; read-out: pTGI (converted)): 9.33 µM
- IC50 [5]: 2.08 µM
- GI50 ([5]; read-out: GI50): 2.05 µM
- CC50 [5, 29]: > 100 µM
- TGI ([5]; read-out: TGI): 84.2 µM
- GI50 ([5]; read-out: pGI50 (converted)): 2.63 µM
- CC50 [5, 30]: > 100 µM
- TGI ([5]; read-out: pTGI (converted)): 8.51 µM
- GI50 ([6]; read-out: GI50): 1.73 µM
- LC50 ([6]; read-out: LC50): 55.2 µM
- TGI ([6]; read-out: TGI): 30 µM
- GI50 ([6]; read-out: pGI50 (converted)): 1.78 µM
- LC50 ([6]; read-out: pLC50 (converted)): 8.51 µM
- TGI ([6]; read-out: pTGI (converted)): 3.89 µM
- growth at 100 µM [7]: -1%
- GI50 ([8]; read-out: GI50): 1.97 µM
- CC50 [8, 29]: 95.5 µM
- TGI ([8]; read-out: TGI): 43.6 µM
- GI50 ([8]; read-out: pGI50 (converted)): 1.95 µM
- CC50 [8, 30]: 9.55 µM
- TGI ([8]; read-out: pTGI (converted)): 4.37 µM
- GI50 ([9]; read-out: GI50): 3.79 µM
- CC50 [9, 29]: 54.1 µM
- TGI ([9]; read-out: TGI): 13.1 µM
- GI50 ([9]; read-out: pGI50 (converted)): 3.8 µM
- CC50 [9, 30]: 83.2 µM
- TGI ([9]; read-out: pTGI (converted)): 13.2 µM
- growth at 0.1 µM [10]: 94%
- GI50 ([11]; read-out: GI50): 1.53 µM
- CC50 [11, 29]: 5.2 µM
- TGI ([11]; read-out: TGI): 44.5 µM
- GI50 ([11]; read-out: pGI50 (converted)): 1.82 µM
- CC50 [11, 30]: 89.1 µM
- TGI ([11]; read-out: pTGI (converted)): 4.47 µM
- growth at 1 µM [12]: 106%
- growth at 0.01 µM [13]: 91%
- growth at 0.1 µM [14]: 94%
- growth at 100 µM [15]: -57%
- growth at 0.01 µM [16]: 99%
- growth at 100 µM [17]: -57%
- growth at 1 µM [18]: 52%
- growth at 0.01 µM [19]: 105%
- growth at 1 µM [20]: 57%
- growth at 0.01 µM [21]: 97%
- growth at 1 µM [22]: 96%
- growth at 0.01 µM [23]: 95%
- GI50 ([24]; read-out: GI50): 3.9 µM
- CC50 [24, 29]: 44 µM
- TGI ([24]; read-out: TGI): 15.5 µM
- GI50 ([24]; read-out: pGI50 (converted)): 3.89 µM
- CC50 [24, 30]: 44.7 µM
- TGI ([24]; read-out: pTGI (converted)): 15.5 µM
- growth at 0.1 µM [25]: 91%
- growth at 1 µM [26]: 81%
- GI50 ([27]; read-out: GI50): 2.12 µM
- CC50 [27, 29]: 95.9 µM
- TGI ([27]; read-out: TGI): 45.7 µM
- GI50 ([27]; read-out: pGI50 (converted)): 2.14 µM
- CC50 [27, 30]: 10 µM
- TGI ([27]; read-out: pTGI (converted)): 4.57 µM
- growth at 1 µM [28]: 87%
